Test results from patent US20250011368A1, “DLL3 TARGETING PEPTIDES AND CONSTRUCTS THEREOF” (MARIANA ONCOLOGY INC., priority 2023, published 2025).
pKd: −log10 of the molar value. Numbered stars: 1 amine (or outer) side, 2 acyl side, 3 side chain; on linkers, the order of the positions; unused ones are H or OH. Bridge positions count the residues as written; N and C are the ends. Square brackets hold non-standard residues; d marks the D form. Peptide text beside a SMILES is read from it. * marks the point of attachment. DOTA = O=C(O)CN1CCN(CC(=O)O)CCN(CC(=O)*)CCN(CC(=O)O)CC1; Phe(4-CF3) = N[C@@H](Cc1ccc(C(F)(F)F)cc1)C(=O)O; Trp(5-F) = N[C@@H](Cc1c[nH]c2ccc(F)cc12)C(=O)O; Phe(2-CF3) = N[C@@H](Cc1ccccc1C(F)(F)F)C(=O)O; Trp(7-aza) = N[C@@H](Cc1c[nH]c2ncccc12)C(=O)O; X5 = O=C([C@H](CC1C=NC2N=CC=CC12)N[*:1])[*:2]; Pro(trans-4-F) = O=C(O)[C@@H]1C[C@@H](F)CN1; Phe(4-F) = N[C@@H](Cc1ccc(F)cc1)C(=O)O; Gly(4-THP) = N[C@H](C(=O)O)C1CCOCC1; Nva(3-Et) = CCC(CC)[C@H](N)C(=O)O; Cha = N[C@@H](CC1CCCCC1)C(=O)O; Cba = N[C@@H](CC1CCC1)C(=O)O; Chg = N[C@H](C(=O)O)C1CCCCC1; Tle = CC(C)(C)[C@H](N)C(=O)O; Nle = CCCC[C@H](N)C(=O)O; Aze = O=C(O)[C@@H]1CCN1

Molecular target: T1, human DLL3 (Homo sapiens, UniProt Q9NYJ7)
T1 sequence (Q9NYJ7 27-618): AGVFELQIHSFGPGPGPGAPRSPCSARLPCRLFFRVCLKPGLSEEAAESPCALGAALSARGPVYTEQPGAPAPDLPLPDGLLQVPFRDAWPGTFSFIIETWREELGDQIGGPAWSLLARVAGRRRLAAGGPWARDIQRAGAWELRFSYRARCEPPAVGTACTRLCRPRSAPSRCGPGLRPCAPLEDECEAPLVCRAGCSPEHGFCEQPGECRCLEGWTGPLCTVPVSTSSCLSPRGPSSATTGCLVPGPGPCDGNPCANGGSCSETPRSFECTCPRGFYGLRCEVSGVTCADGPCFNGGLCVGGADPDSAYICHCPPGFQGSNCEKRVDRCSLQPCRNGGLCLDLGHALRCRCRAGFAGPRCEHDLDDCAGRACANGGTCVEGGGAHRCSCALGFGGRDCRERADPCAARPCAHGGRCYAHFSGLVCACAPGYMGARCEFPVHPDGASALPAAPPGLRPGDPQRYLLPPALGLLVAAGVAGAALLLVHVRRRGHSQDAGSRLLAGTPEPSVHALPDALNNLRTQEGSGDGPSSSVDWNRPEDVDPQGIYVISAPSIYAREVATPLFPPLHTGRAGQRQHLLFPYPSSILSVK
Assay: Affinity determination by Surface Plasmon Resonance (SPR)
Format: binding
Conditions: 25° C., biotinylated human DLL3 immobilized on streptavidin sensor chip, 1:1 binding model; read-out: SPR KD
How it was run: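 Biotinylated human DLL3 was captured on a streptavidin chip with a reference surface. Compounds at several concentrations were injected at 100 μL/minute in phosphate buffer (137 mM NaCl, 2.7 mM KCl, 0.05% P20, 2% DMSO). Affinity and kinetics came from 1:1 model fits of the sensorgrams.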

| pKd | SMILES |
| --- | --- |
| 8.00 to 9.00 | CC(=O)N[C@@H](Cc1c[nH]c2ccc(F)cc12)C(=O)N[C@H](C(=O)N[C@@H](Cc1ccccc1C(F)(F)F)C(=O)N[C@H]1CSSC[C@@H](C(=O)N[C@@H](Cc2c[nH]c3ncccc23)C(=O)N2C[C@H](F)C[C@H]2C(=O)N[C@H](CCCCNC(=O)CN2CCN(CC(=O)O)CCN(CC(=O)O)CCN(CC(=O)O)CC2)C(N)=O)NC(=O)[C@H](CC(=O)O)NC(=O)[C@H](Cc2cnc[nH]2)NC(=O)[C@H](Cc2ccc(F)cc2)NC(=O)[C@H](CC(N)=O)NC(=O)[C@H](CC(N)=O)NC1=O)[C@@H](C)O [compound 136, Ac-(5Fluoro-W)-T-(2CF3-F)-C(3)-N-N-(4Fluoro-F)-H-D-C(3)-(7Aza-W)-(trans4Fluoro-P)-[D-Lys(DOTA)]-NH2] (Ac-[Trp(5-F)]T[Phe(2-CF3)]CNN[Phe(4-F)]HDC[Trp(7-aza)][Pro(trans-4-F)][dK](DOTA)-NH2; disulfide 4-10) |
| 8.00 to 9.00 | CC(=O)N[C@@H](Cc1c[nH]c2ccc(F)cc12)C(=O)N[C@H](C(=O)N[C@H](C(=O)N[C@H]1CSSC[C@@H](C(=O)N[C@@H](Cc2c[nH]c3ncccc23)C(=O)N2CC[C@H]2C(=O)N[C@H](CCCCNC(=O)CN2CCN(CC(=O)O)CCN(CC(=O)O)CCN(CC(=O)O)CC2)C(N)=O)NC(=O)[C@H](CC(=O)O)NC(=O)[C@H](Cc2cnc[nH]2)NC(=O)[C@H](Cc2ccc(C(F)(F)F)cc2)NC(=O)[C@H](CC(N)=O)NC(=O)[C@H](CC(N)=O)NC1=O)C(C)(C)C)[C@@H](C)O [compound 137, Ac-(5Fluoro-W)-T-(Tbg)-C(3)-N-N-(4CF3-F)-H-D-C(3)-(7Aza-W)-(Aze)-[D-Lys(DOTA)]-NH2] (Ac-[Trp(5-F)]T[Tle]CNN[Phe(4-CF3)]HDC[Trp(7-aza)][Aze][dK](DOTA)-NH2; disulfide 4-10) |
| 7.00 to 8.00 | CCC(CC)[C@H](NC(=O)[C@@H](NC(=O)[C@H](Cc1c[nH]c2ccc(F)cc12)NC(C)=O)[C@@H](C)O)C(=O)N[C@H]1CSSC[C@@H](C(=O)N[C@@H](Cc2c[nH]c3ncccc23)C(=O)N2CC[C@H]2C(=O)N[C@H](CCCCNC(=O)CN2CCN(CC(=O)O)CCN(CC(=O)O)CCN(CC(=O)O)CC2)C(N)=O)NC(=O)[C@H](CC(=O)O)NC(=O)[C@H](Cc2c[nH]cn2)NC(=O)[C@H](Cc2ccc(C(F)(F)F)cc2)NC(=O)[C@H](CC(N)=O)NC(=O)[C@H](CC(N)=O)NC1=O [compound 138, Ac-(5Fluoro-W)-T-(Env)-C(3)-N-N-(4CF3-F)-H-D-C(3)-(7Aza-W)-(Aze)-[D-Lys(DOTA)]-NH2] (Ac-[Trp(5-F)]T[Nva(3-Et)]CNN[Phe(4-CF3)]HDC[Trp(7-aza)][Aze][dK](DOTA)-NH2; disulfide 4-10) |
| 8.00 to 9.00 | CC(=O)N[C@@H](Cc1c[nH]c2ccc(F)cc12)C(=O)N[C@H](C(=O)N[C@H](C(=O)N[C@H]1CSSC[C@@H](C(=O)N[C@@H](Cc2c[nH]c3ncccc23)C(=O)N2CC[C@H]2C(=O)N[C@H](CCCCNC(=O)CN2CCN(CC(=O)O)CCN(CC(=O)O)CCN(CC(=O)O)CC2)C(N)=O)NC(=O)[C@H](CC(=O)O)NC(=O)[C@H](Cc2cnc[nH]2)NC(=O)[C@H](Cc2ccc(C(F)(F)F)cc2)NC(=O)[C@H](CC(N)=O)NC(=O)[C@H](CC(N)=O)NC1=O)C1CCOCC1)[C@@H](C)O [compound 139, Ac-(5Fluoro-W)-T-(THPG)-C(3)-N-N-(4CF3-F)-H-D-C(3)-(7Aza-W)-(Aze)-[D-Lys(DOTA)]-NH2] (Ac-[Trp(5-F)]T[Gly(4-THP)]CNN[Phe(4-CF3)]HDC[Trp(7-aza)][Aze][dK](DOTA)-NH2; disulfide 4-10) |
| 7.00 to 8.00 | CCCC[C@H](NC(=O)[C@@H](NC(=O)[C@H](Cc1c[nH]c2ccc(F)cc12)NC(C)=O)[C@@H](C)O)C(=O)N[C@H]1CSSC[C@@H](C(=O)N[C@@H](Cc2c[nH]c3ncccc23)C(=O)N2CC[C@H]2C(=O)N[C@H](CCCCNC(=O)CN2CCN(CC(=O)O)CCN(CC(=O)O)CCN(CC(=O)O)CC2)C(N)=O)NC(=O)[C@H](CC(=O)O)NC(=O)[C@H](Cc2cnc[nH]2)NC(=O)[C@H](Cc2ccc(C(F)(F)F)cc2)NC(=O)[C@H](CC(N)=O)NC(=O)[C@H](CC(N)=O)NC1=O [compound 140, Ac-(5Fluoro-W)-T-(Nle)-C(3)-N-N-(4CF3-F)-H-D-C(3)-(7Aza-W)-(Aze)-[D-Lys(DOTA)]-NH2] (Ac-[Trp(5-F)]T[Nle]CNN[Phe(4-CF3)]HDC[Trp(7-aza)][Aze][dK](DOTA)-NH2; disulfide 4-10) |
| 8.00 to 9.00 | CC(=O)N[C@@H](Cc1c[nH]c2ccc(F)cc12)C(=O)N[C@H](C(=O)N[C@@H](CC1CCCCC1)C(=O)N[C@H]1CSSC[C@@H](C(=O)N[C@@H](Cc2c[nH]c3ncccc23)C(=O)N2CC[C@H]2C(=O)N[C@H](CCCCNC(=O)CN2CCN(CC(=O)O)CCN(CC(=O)O)CCN(CC(=O)O)CC2)C(N)=O)NC(=O)[C@H](CC(=O)O)NC(=O)[C@H](Cc2cnc[nH]2)NC(=O)[C@H](Cc2ccc(C(F)(F)F)cc2)NC(=O)[C@H](CC(N)=O)NC(=O)[C@H](CC(N)=O)NC1=O)[C@@H](C)O [compound 141, Ac-(5Fluoro-W)-T-(CHA)-C(3)-N-N-(4CF3-F)-H-D-C(3)-(7Aza-W)-(Aze)-[D-Lys(DOTA)]-NH2] (Ac-[Trp(5-F)]T[Cha]CNN[Phe(4-CF3)]HDC[Trp(7-aza)][Aze][dK](DOTA)-NH2; disulfide 4-10) |
| 8.00 to 9.00 | CC(=O)N[C@@H](Cc1c[nH]c2ccc(F)cc12)C(=O)N[C@H](C(=O)N[C@@H](CC1CCC1)C(=O)N[C@H]1CSSC[C@@H](C(=O)N[C@@H](Cc2c[nH]c3ncccc23)C(=O)N2CC[C@H]2C(=O)N[C@H](CCCCNC(=O)CN2CCN(CC(=O)O)CCN(CC(=O)O)CCN(CC(=O)O)CC2)C(N)=O)NC(=O)[C@H](CC(=O)O)NC(=O)[C@H](Cc2cnc[nH]2)NC(=O)[C@H](Cc2ccc(C(F)(F)F)cc2)NC(=O)[C@H](CC(N)=O)NC(=O)[C@H](CC(N)=O)NC1=O)[C@@H](C)O [compound 142, Ac-(5Fluoro-W)-T-(CBA)-C(3)-N-N-(4CF3-F)-H-D-C(3)-(7Aza-W)-(Aze)-[D-Lys(DOTA)]-NH2] (Ac-[Trp(5-F)]T[Cba]CNN[Phe(4-CF3)]HDC[Trp(7-aza)][Aze][dK](DOTA)-NH2; disulfide 4-10) |
| 8.00 to 9.00 | CC(=O)N[C@@H](Cc1c[nH]c2ccc(F)cc12)C(=O)N[C@H](C(=O)N[C@H](C(=O)N[C@H]1CSSC[C@@H](C(=O)N[C@@H](Cc2c[nH]c3ncccc23)C(=O)N2CC[C@H]2C(=O)N[C@H](CCCCNC(=O)CN2CCN(CC(=O)O)CCN(CC(=O)O)CCN(CC(=O)O)CC2)C(N)=O)NC(=O)[C@H](CC(=O)O)NC(=O)[C@H](Cc2cnc[nH]2)NC(=O)[C@H](Cc2ccc(C(F)(F)F)cc2)NC(=O)[C@H](CC(N)=O)NC(=O)[C@H](CC(N)=O)NC1=O)C1CCCCC1)[C@@H](C)O [compound 143, Ac-(5Fluoro-W)-T-(Chg)-C(3)-N-N-(4CF3-F)-H-D-C(3)-(7Aza-W)-(Aze)-[D-Lys(DOTA)]-NH2] (Ac-[Trp(5-F)]T[Chg]CNN[Phe(4-CF3)]HDC[Trp(7-aza)][Aze][dK](DOTA)-NH2; disulfide 4-10) |
| 8.00 to 9.00 | CC(=O)N[C@@H](Cc1c[nH]c2ccc(F)cc12)C(=O)N[C@H](C(=O)N[C@@H](Cc1ccccc1C(F)(F)F)C(=O)N[C@H]1CSSC[C@@H](C(=O)N[C@@H](Cc2c[nH]c3ncccc23)C(=O)N2CC[C@H]2C(=O)N[C@H](CCCCNC(=O)CN2CCN(CC(=O)O)CCN(CC(=O)O)CCN(CC(=O)O)CC2)C(N)=O)NC(=O)[C@H](CC(=O)O)NC(=O)[C@H](Cc2cnc[nH]2)NC(=O)[C@H](Cc2ccc(C(F)(F)F)cc2)NC(=O)[C@H](CC(N)=O)NC(=O)[C@H](CC(N)=O)NC1=O)[C@@H](C)O [compound 144, Ac-(5Fluoro-W)-T-(2CF3-F)-C(3)-N-N-(4CF3-F)-H-D-C(3)-(7Aza-W)-(Aze)-[D-Lys(DOTA)]-NH2] (Ac-[Trp(5-F)]T[Phe(2-CF3)]CNN[Phe(4-CF3)]HDC[Trp(7-aza)][Aze][dK](DOTA)-NH2; disulfide 4-10) |
| 8.00 to 9.00 | CC(=O)N[C@@H](Cc1c[nH]c2ccc(F)cc12)C(=O)N[C@H](C(=O)N[C@H](C(=O)N[C@H]1CSSC[C@@H](C(=O)N[C@@H](CC2C=NC3N=CC=CC23)C(=O)N2C[C@H](F)C[C@H]2C(=O)N[C@H](CCCCNC(=O)CN2CCN(CC(=O)O)CCN(CC(=O)O)CCN(CC(=O)O)CC2)C(N)=O)NC(=O)[C@H](CC(=O)O)NC(=O)[C@H](Cc2cnc[nH]2)NC(=O)[C@H](Cc2ccc(C(F)(F)F)cc2)NC(=O)[C@H](CC(N)=O)NC(=O)[C@H](CC(N)=O)NC1=O)C(C)(C)C)[C@@H](C)O (stereo partly drawn) [compound 145, Ac-(5Fluoro-W)-T-(Tbg)-C(3)-N-N-(4CF3-F)-H-D-C(3)-(7Aza-W)-(trans4Fluoro-P)-[D-Lys(DOTA)]-NH2] (Ac-[Trp(5-F)]T[Tle]CNN[Phe(4-CF3)]HDC[X5][Pro(trans-4-F)][dK](DOTA)-NH2; disulfide 4-10) |
